# How the values were obtained:
# Format in all cases: cell-based, Listeria monocytogenes
# L. monocytogenes [1] = experiment: Control storage of emulsions in regular test tubes at 4° C. with bioassay; conditions: 150 μg/mL nisin
# Protocol: The label “free nisin” denotes the preparation containing nisin only in buffer. The total initial concentration of nisin was 150 μg/mL for each preparation. One portion of each preparation was applied to the model system (labeled “Model”), and another portion was stored in a regular test tube as the control (labeled “Control”). Both model and control groups were aliquoted after various storage periods for the activity tests.
# Nisin activity, either for those freshly prepared or stored in BHI agar deep-well, was determined as described by Pongtharangkul and Demirci (2004) with modifications. Agar diffusion bioassay was used to determine the nisin activity against L. monocytogenes. BHI (3.7%) solution containing 0.75% agar and 1.0% Tween 20 was prepared and autoclaved. After cooling to approximately 40° C., the solution was inoculated by a 1.0% volume of BHI broth containing L. monocytogenes V7 (ca. 108 colony-forming units/mL). To each square Petri-dish plate (10×10 cm), a 32 mL inoculated BHI agar solution was added and allowed to solidify. Thereafter, holes with 7.0 mm diameter were made using a cork borer, and 100 μL of each nisin preparation was added to each agar well. The Petri-dish plates were then incubated for 24 h at room temperature, and the size of inhibitory ring was measured to indicate the activity against L. monocytogenes. […]
# L. monocytogenes [2] = experiment: BHI-agar deep-well model of nisin depletion (21 days, 4° C.) with bioassay, PG derivatives
# Protocol: Nisin activity, either for those freshly prepared or stored in BHI agar deep-well, was determined as described by Pongtharangkul and Demirci (2004) with modifications. Agar diffusion bioassay was used to determine the nisin activity against L. monocytogenes. BHI (3.7%) solution containing 0.75% agar and 1.0% Tween 20 was prepared and autoclaved. After cooling to approximately 40° C., the solution was inoculated by a 1.0% volume of BHI broth containing L. monocytogenes V7 (ca. 108 colony-forming units/mL). To each square Petri-dish plate (10×10 cm), a 32 mL inoculated BHI agar solution was added and allowed to solidify. Thereafter, holes with 7.0 mm diameter were made using a cork borer, and 100 μL of each nisin preparation was added to each agar well. The Petri-dish plates were then incubated for 24 h at room temperature, and the size of inhibitory ring was measured to indicate the activity against L. monocytogenes.
# In this study, a BHI-agar deep-well model was established to mimic the depletion of nisin at nutrient-containing surfaces, such as a food surface (FIG. 1). BHI is a nutritious culture medium that supplies protein and other nutrients necessary to support the growth of fastidious and nonfastidious microorganisms. It contains infusions from calf brains and beef hearts, proteose and peptone, dextrose, sodium chloride, and disodium phosphate. […] Therefore, BHI is an ideal nutrient model for studying nisin depletion and retention. Our experiments have consistently shown that BHI-containing broths and gels lead to rapid depletion of peptide activity. In a deep well filled with a liquid peptide preparation, peptide molecules diffuse from the solution into the gel (causing diffusion-based depletion), and BHI components diffuse from the agar gel into the solution (causing irreversible peptide adsorption or degradation).
# For continuous sampling at various stages of storage, nisin preparations were added to the deep wells of the BHI-agar gel. For the deep-well storage, the inner surface of a well was used to mimic the outer surface of solid food. […]
# L. monocytogenes V7 = experiment: BHI-agar deep-well model of nisin depletion (50 days, 4° C.) with bioassay, emulsions
# Protocol: To prepare emulsions, PG-OS and WCS-OS were each dissolved in sodium acetate buffer (50 mM, pH 5.5, 22° C.) to form a solution of 10 mg/mL. As a reference, 1.0 mg/mL of Tween 20 solution was also prepared using the sodium acetate buffer. Vegetable oil was added to each emulsifier solution, at twice (for PG-OS and WCS-OS) or 20 times (Tween 20) the weight of the emulsifier. […] Each mixture was further diluted with the same volume of sodium acetate buffer. […] These emulsions were sterilized using a boiling-water bath for 3 min before further tests. Nisin activity, either for those freshly prepared or stored in BHI agar deep-well, was determined as described by Pongtharangkul and […] (2004) with modifications. Agar diffusion bioassay was used to determine the nisin activity against L. monocytogenes. […] After cooling to approximately 40° C., the solution was inoculated by a 1.0% volume of BHI broth containing L. monocytogenes V7 (ca. 108 colony-forming units/mL). To each square Petri-dish plate (10×10 cm), a 32 mL inoculated BHI agar solution was added and allowed to solidify. […] The Petri-dish plates were then incubated for 24 h at room temperature, and the size of inhibitory ring was measured to indicate the activity against L. monocytogenes. […] The hot solution (225 mL) was poured into a 600-mL beaker to a height of 40 mm. After gel solidification, four wells (from gel surface to bottom) were made in each beaker using a 7.0-mm borer.
# [3] = initial nisin 150 μg/mL, calculated from ring size by standard curve
substance,measurement,setting,value
nisin [free nisin],"change of inhibitory ring size during storage, control groups",L. monocytogenes [1],did not show an appreciable change
same,retained activity at day 5,"L. monocytogenes [2]; deep wells in BHI-agar gel, summary",negligible
same,residual nisin activity after 7 days,"L. monocytogenes [2]; deep-well model, 4° C., 100 μg/mL nisin",negligible
same,nisin activity at 0 day,"L. monocytogenes [2]; deep-well model, initial test, 100 μg/mL nisin",highest nisin activity
same,"size of inhibitory ring after 40 days, model groups","L. monocytogenes V7; deep-well model, 4° C., 150 μg/mL nisin",undetectable
same,available nisin after 5 days,L. monocytogenes V7; [3],10.2 µg/mL
same,available nisin after 20 days,L. monocytogenes V7; [3],< 1 µg/mL
same,available nisin after 40 days,L. monocytogenes V7; [3],negligible

# From patent US20140066363A1, “CARBOHYDRATE NANOPARTICLES FOR PROLONGED EFFICACY OF ANTIMICROBIAL PEPTIDE” (priority 2011, published 2014)
